{"source": "paper PMC5974751", "about": "“NKp44-Derived Peptide Binds Proliferating Cell Nuclear Antigen and Mediates Tumor Cell Death” (Frontiers in Immunology, 2018)", "key": {"[1]": {"experiment": "Initial toxicity studies in mice", "format": "in vivo, mouse", "details": "5 mg/kg every 2 days for 3 weeks; data not shown", "experimental": "Initial toxicity studies have been performed with the 5 mg/kg dose injected into mice every 2 days for 3 weeks, and analysis of mouse weight and well-being was meticulously observed during this time. Also, livers, spleens, and lungs were harvested and weight."}, "[2]": {"test_system": "B16 melanoma tumor in C57BL/6 mice", "experiment": "In vivo B16 tumor growth", "design": "species or system mouse", "details": "R11-NLS-pep8 5 mg/kg IP, 5-FU 30 mg/kg IP, treatment stopped day 22", "experimental": "Seven-week-old male C57BL/6 mice with an average body weight of 23 g were used in the other experiment. B16 cells suspended at a density of 0.5 × 10^6 cells/100 μl, in serum-free DMEM containing 40% Geltrex, were injected subcutaneously in the left dorsal flank, and allowed to develop tumors. After 6 days, mice were randomly divided into three groups, one group was treated with R11-NLS-pep8, at a dose of 5 mg/kg, intraperitoneally (IP), other group with 5-FU, at a dose of 30 mg/kg, (IP) and mice treated with a 1.44% DMSO/150 mM NaCl solution, (IP) served as the vehicle control. Treatment was done three times a week at least for 4 weeks. Each week, tumors size was evaluated by measuring their length (L) and width (W), using a Caliper device and tumor volume (V) was calculated according to the equation: V = LW^2/2. After 3 weeks of treatment, mice were euthanized, and tumors volume and weight were measured.\nFigure 5 Effect of R11-NLS-pep8 on 4T1 and B16 in vivo tumor models. (A) 4T1 cells or (C) B16 cells were injected into the nipple pad or flank of young BALB/C females or C57BL/6 males, respectively (day 0). At day 5, mice were divided to subgroups according to mice weight. […] Tumor volume (mm^3) was measured at days as indicated on graphs mean tumor volume (mm^3), (B) 4T1 and (D) B16 were normalized to vehicle/day to show the effect of treatment on tumor volume per day. […]"}, "[3]": {"test_system": "HepG2 hepatocellular carcinoma cells", "experiment": "PrestoBlue cell viability, HepG2", "format": "cell-based, human", "details": "24 h, sigmoidal dose–response", "experimental": "(§1) Target cells (2.5 × 10^4 cells/well of a 48-well plate, Corning) were seeded and incubated in 37°C, 5% CO2 for 24 h in 0.5 ml of fresh complete DMEM (10% FBS) culture medium. According to molecular weight peptides were diluted from 8 to 2 µM with 5% FBS containing DMEM culture medium just before the incubation with the target cells. Medium was removed from each well, and 250 µl of diluted peptides was added and incubated for another 24 h at 37°C, 5% CO2. PrestoBlue (A13261, Invitrogen™) solution was prepared by diluting the dye 10-fold with complete DMEM. Medium was discarded from each well, and 250 µl of PrestoBlue solution was added to each well, shake gently and incubated at 37°C for another 1 h. Emission at 560 nm was measured in Premium Quad4 Monochromators plate reader (Tecan). Normalization was done relative to the appropriate control (DMEM or DMSO) to calculate the percentage of viable cells in each group. Selenite (25 µM) was used as a positive control ([52], [53])."}, "[4]": {"test_system": "PANC-1 pancreas ductal adenocarcinoma cells", "experiment": "PrestoBlue cell viability, PANC-1", "format": "cell-based, human", "details": "PANC-1, PrestoBlue, 24 h; sigmoidal dose–response", "experimental": "as §1"}, "B16 melanoma cells": {"test_system": "B16 melanoma cells", "experiment": "PrestoBlue cell viability, B16", "format": "cell-based, murine", "details": "24 h, sigmoidal dose–response", "experimental": "as §1"}, "4T1 cells": {"test_system": "4T1 cells", "experiment": "Flow cytometry based cell death assay (PI), 4T1", "design": "species or system murine", "details": "4T1, PI flow cytometry, 0–8 µM, 24 h", "experimental": "(§2) Peptides were diluted before the incubation with the target cells with free DMEM culture medium to 0–16 µM according to peptide molecular weight. For adding the peptides, 0.5 ml was removed from each well, and 0.5 ml of diluted peptides was added to a final volume of 1 ml, 5% FCS, duplicates. Peptides were incubated with target cells for 24 h, and then the medium was collected, adherent cells were removed with trypsin–EDTA (0.5 ml, 3 min, BI: 03-052-1B), 1 ml of complete medium was added to each well, and the medium was collected (final volume 2.5 ml, on ice). For the cell death assay, samples were then centrifuged (1,300 rpm, 4°C, 5 min), the medium was removed, fresh 1 ml 10% FCS was added, and then 1 µl of 1 mg/ml PI was added to each sample and incubated (15 min, on ice) with the target cells. Before analyzing the samples, samples were centrifuged (1,300 rpm, 4°C, 5 min), the medium was removed, and fresh 0.2 ml FCAS buffer (PBS 1×, 20% FCS, 0.5% NaN3) was added. Samples were then read and analyzed using BD FACSCanto™ II and FlowJo®. APIM peptide and camptothecin (CPT) were used as positive controls ([38], [54]–[56]). Specific cell death was calculated as following: Y = 100*((sample cell death − basal cell death)/(100 − basal cell death)). Basal cell death = % of PI positive cells following incubation in complete culture media."}, "B16 cells": {"test_system": "B16 cells", "experiment": "Flow cytometry based cell death assay (PI), B16", "design": "species or system murine", "details": "0–8 µM, 24 h", "experimental": "as §2"}, "MDA-MB-231 cells": {"test_system": "MDA-MB-231 cells", "experiment": "Flow cytometry based cell death assay (PI), MDA-MB-231", "design": "species or system human", "details": "MDA-MB-231, PI flow cytometry, 0–8 µM, 24 h", "experimental": "as §2"}, "[5]": {"test_system": "pep8–PCNA interaction (recombinant PCNA)", "experiment": "ELISA-based inhibition of biotin-pep8 binding to PCNA", "design": "species or system human", "details": "inhibitor 25 µg/ml 1 h, then biotin-pep8 5 µg/ml 1 h, room temperature, O.D. 650 nm", "experimental": "To determine the ability of APIM-based peptide to suppress NKp44-pep8 interaction with PCNA, ELISA plates were coated with recombinant PCNA followed by PBS–skim milk added as described earlier. Plates were then incubated with 25 µg/ml of R11-NLS-pep8 (positive control), R11-NLS-pep8short (negative control), and APIM for 1 h at room temperature followed by addition of biotin-pep8 (5 µg/ml) without washing for 1 h at room temperature. Biotin-pep8 binding to PCNA was detected using streptavidin conjugated HRP (1 h at 1:500 dilution 100 μl/well). Following washing, TMB (100 μl/well DAKO, S1599) was added. O.D. was read at 650 nm (Thermo Electron Corporation Multiskan Spectrum)."}, "[6]": {"test_system": "MDA-MB-231 breast adenocarcinoma cells", "experiment": "PrestoBlue cell viability, MDA-MB-231", "format": "cell-based, human", "details": "MDA-MB-231, PrestoBlue, 24 h; sigmoidal dose–response", "experimental": "as §1"}, "[7]": {"test_system": "4T1 breast cancer tumor in BALB/C mice", "experiment": "In vivo 4T1 tumor growth", "design": "species or system mouse", "experimental": "Seven-week-old female BALB/C mice with an average body weight of 20 g were used in this experiment. 4T1 cells suspended at a density of 2 × 10^5 cells/50 μl, in serum-free DMEM containing 40% Geltrex, were injected into the left mammary fat pad, and allowed to develop tumors. After 5 days, mice were randomly divided into three groups, one group was treated with R11-NLS-pep8, at a dose of 5 mg/kg, intravenously (IV), other group with 5-FU, at a dose of 30 mg/kg, (IV) and mice treated with a 1.44% DMSO/150 mM NaCl solution, (IV) served as the vehicle control. Treatment was continued following every 2 days at least for 4 weeks. Each week, tumor size was evaluated by measuring their length (L) and width (W), using a Caliper device and tumor volume (V) was calculated according to the equation: V = LW^2/2. After 4 weeks of treatment, mice were euthanized, and tumors volume and weight were measured.\nFigure 5 Effect of R11-NLS-pep8 on 4T1 and B16 in vivo tumor models. (A) 4T1 cells or (C) B16 cells were injected into the nipple pad or flank of young BALB/C females or C57BL/6 males, respectively (day 0). At day 5, mice were divided to subgroups according to mice weight. Treatment was started at day 5 (4T1) or day 6 (B16) and end at day 22. Treatment was administrated every 2 days three times per week; 5-FU was administered intraperitoneally (IP) while R11-NLS-pep8 was administrated intravenously (4T1) or IP (B16). Tumor volume (mm^3) was measured at days as indicated on graphs mean tumor volume (mm^3), (B) 4T1 and (D) B16 were normalized to vehicle/day to show the effect of treatment on tumor volume per day. Statistical analysis was performed on original tumor volume data. Unpaired t-test; one-tail, *p < 0.05."}}, "note": "Peptide text beside a SMILES is read from it.", "data": [{"smiles": "CC[C@H](C)[C@H](NC(=O)[C@H](CCCNC(=N)N)NC(=O)[C@H](CCCNC(=N)N)NC(=O)[C@H](CCCNC(=N)N)NC(=O)[C@H](CCCNC(=N)N)NC(=O)[C@H](CCCNC(=N)N)NC(=O)[C@H](CCCNC(=N)N)NC(=O)[C@H](CCCNC(=N)N)NC(=O)[C@H](CCCNC(=N)N)NC(=O)[C@H](CCCNC(=N)N)NC(=O)[C@H](CCCNC(=N)N)NC(=O)[C@H](CCCNC(=N)N)NC(C)=O)C(=O)N[C@@H](CCCCN)C(=O)N[C@@H](CCCCN)C(=O)N[C@@H](CCCCN)C(=O)N[C@@H](CCCNC(=N)N)C(=O)N[C@@H](CCCCN)C(=O)N[C@@H](Cc1c[nH]c2ccccc12)C(=O)N[C@@H](CCC(=O)O)C(=O)N[C@@H](C)C(=O)N[C@@H](CO)C(=O)N[C@@H](C)C(=O)N[C@@H](CC(C)C)C(=O)N[C@H](C(=O)N[C@@H](CS)C(=O)N[C@H](C(=O)N[C@@H](CCCNC(=N)N)C(=O)N[C@@H](CC(C)C)C(=O)N[C@H](C(=O)N[C@H](C(=O)N[C@@H](CO)C(=O)N[C@@H](CO)C(=O)N[C@@H](CCCCN)C(=O)N1CCC[C@H]1C(=O)N[C@@H](CCCNC(=N)N)C(=O)N[C@H](C(=O)N[C@H](C(=O)N[C@H](C)C(=O)O)C(C)C)[C@@H](C)O)[C@@H](C)O)C(C)C)[C@@H](C)CC)C(C)C", "note": "[R11-NLS-pep8] (HELM PEPTIDE1{[ac].R.R.R.R.R.R.R.R.R.R.R.I.K.K.K.R.K.W.E.A.S.A.L.V.C.I.R.L.V.T.S.S.K.P.R.T.V.[dA]}$$$$V2.0; C-terminus assumed)", "values": [{"measurement": "mice weights and well-being", "setting": "[1]", "result": "No significant changes were observed"}, {"measurement": "organ weights (livers, spleens, lungs) at end of experiment", "setting": "[1]", "result": "No significant changes were observed"}, {"measurement": "tumor growth suppression, day 23", "setting": "[2]", "result": "significantly suppressed B16 growth"}, {"measurement": "ED50, cell viability", "setting": "[3]", "result": 5.9, "unit": "µM"}, {"measurement": "ED50, cell viability", "setting": "[4]", "result": 7.8, "unit": "µM"}, {"measurement": "ED50, cell viability", "setting": "B16 melanoma cells", "result": 7.1, "unit": "µM"}, {"measurement": "ED50, cell death", "setting": "4T1 cells", "result": 3.78, "unit": "µM"}, {"measurement": "ED50, cell death", "setting": "B16 cells", "result": 3.94, "unit": "µM"}, {"measurement": "ED50, cell death", "setting": "MDA-MB-231 cells", "result": 4.07, "unit": "µM"}, {"measurement": "inhibition of pep8 binding to PCNA", "setting": "[5]", "result": 35, "unit": "%"}, {"measurement": "ED50, cell viability", "setting": "[6]", "result": 5.6, "unit": "µM"}, {"measurement": "growth suppression relative to 5-FU", "setting": "[7]; R11-NLS-pep8 5 mg/kg IV vs 5-FU IP 30 mg/kg", "result": "comparable to the effect of 5-FU"}, {"measurement": "tumor growth suppression vs vehicle, significance on days 19 and 23", "setting": "[7]; R11-NLS-pep8 5 mg/kg IV, 5-FU 30 mg/kg, every 2 days, treatment stopped day 22, unpaired t-test, one-tail", "result": "statistically significant on days 19 and 23"}, {"measurement": "tumor growth suppression vs vehicle, significance on day 28", "setting": "[7]; R11-NLS-pep8 5 mg/kg IV, 5-FU 30 mg/kg, treatment stopped day 22", "result": "statistically non-significant difference"}]}]}
